Patent US9610232B2, “Use of sphinganine to improve the visual appearance of skin and hair” (EVONIK DEGUSSA GMBH, priority 2011, dated 2017)

Tests used:
stem cell markers = assay: Gene expression studies in cell cultures; type: cell-based
Excerpt: A further subject matter of the present invention is consequently the cosmetic use of sphinganine for modulating stem cell markers.

hair grease production = assay: Human scalp health study: hair tonic applied to scalp, greasiness by subjective evaluation and Sebutape method; type: in vivo; conditions: hair tonic with 0.2% sphinganine, 3 mL to scalp twice daily, 4 months; vehicle control; 16 subjects per group
Experimental: The panel comprised 32 subjects (mixed male/female, minimum age 30, with a tendency for greasy scalp/greasy hair), with 16 subjects in each case applying a hair tonic with 0.2% sphinganine or without sphinganine (vehicle control). The application phase comprised 4 months, with the hair tonic being applied to the scalp twice daily (morning and evening) with the help of a pipette with a defined volume of 3 mL, and gently massaged in using the hands. The test parameters included the shine of the hair and the greasiness of the scalp. The greasiness of the scalp is carried out firstly by means of a subjective evaluation (self and expert estimation), and secondly by means of a “Sebutape” method in accordance with manufacturers instructions. Time points for carrying out the measurements were before the start of application, after two months and after four months.

[1] = system: sebum production of the skin; assay: Human sebum study: skin sebum on the forehead measured with Sebumeter SM 815; type: in vivo; conditions: lotion with 0.1% sphinganine, topical to forehead twice daily, 28 days (T4 vs T0); compared to the starting value and to the vehicle group; 14 female subjects
Experimental: The panel comprised 30 female subjects aged 21-45 years, with 14 subjects applying a lotion containing 0.1% sphinganine and 16 subjects applying a lotion without sphinganine (vehicle control).
The application phase comprised 28 days, with application taking place twice daily (morning and evening) to the forehead.
The skin sebum was measured using a Sebumeter SM 815® from Courage+Khazaka electronic GmbH, Cologne, Germany. The measurements were taken in the middle of the forehead in the region of the glabella lines. The average value calculated from the individual values of three repeat measurements was registered. On the evening before each measurement no formulation was applied. Three hours before the measurement, the forehead was cleaned using a wipe (babylove sensitive wipes, dm-drogerie markt, Karlsruhe, Germany). The measurements were carried out in each case at a time of day defined individually for each subject in the period between 12:00 and 14:30 hours. The sebum value at time point T0 before the application phase and T4 after 28 days was determined.

## CCCCCCCCCCCCCCC[C@@H](O)[C@@H](N)CO [sphinganine]
Stem cell markers
  expression of stem cell markers: beneficially modulated the expression of so-called stem cell markers
Hair grease production
  hair grease production: significant reduction in hair grease production
[1]
  sebum production: statistically significant reduction in sebum production
